# Tests used:
# [1] = acute toxicity, subcutaneous injection; assay type: in vivo; conditions: 1000 mg/kg and 2000 mg/kg, injected subcutaneously, Swiss mice
# Source text: The acute toxicity of the compound in laboratory animals has been evaluated.
# [2] = test system: Staphylococcus aureus E 710 (Methicillin resistant); experiment: in vivo antibacterial protection study in experimentally infected mice; conditions: laboratory mice experimentally infected with Staphylococcus aureus E 710 (Methicillin resistant)
# Source text: "In vivo" antibacterial protection studies
# [3] = acute toxicity, intravenous injection, mice; assay type: in vivo; conditions: Swiss white mice
# [4] = acute toxicity, intravenous injection, rats; assay type: in vivo; conditions: Wistar rats
# Gram-positive bacteria = experiment: minimum inhibitory concentration (MIC) determination; assay type: cell-based; conditions: wide range of Gram-positive bacteria including enterococci and resistant clinical isolates; MIC values are in Table II (image)
# [5] = i.v., end of the 14 day follow-up period
Molecule,finding at the site of injection [1],activity in the in vivo system [2],"macroscopic examination on dissection [3, 5]","LD₅₀ ([3]; intravenous injection (i.v.), 20160 min)","macroscopic examination on dissection [4, 5]",LD₅₀ ([4]; intravenous injection (i.v.)),acute toxicity [1],activity against Gram-positive bacteria (Gram-positive bacteria)
"CN[C@H](CC(C)C)C(=O)N[C@H]1C(=O)N[C@@H](CC(N)=O)C(=O)N[C@H]2C(=O)N[C@H]3C(=O)N[C@H](C(=O)N[C@H](C(=O)O)c4cc(O)cc(O)c4-c4cc3ccc4O)[C@H](O)c3ccc(c(Cl)c3)Oc3cc2cc(c3O[C@@H]2O[C@H](CO)[C@@H](O)[C@H](O)[C@H]2O[C@H]2C[C@](C)(N)[C@H](O)[C@H](C)O2)Oc2ccc(cc2Cl)[C@H]1O [vancomycin, reference compound]",tissue necrosis was seen at the site of injection,,,,,,,
Decaplanin,no abnormalities were observed,good activity,no morphological changes,greater than 3000 mg/kg,no morphological changes,"greater than 2,500 mg/kg",no acute toxicity was observed,displays activity
